The target in one assay is KRAS G12D (Homo sapiens, UniProt P01116, G12D). The assay is described as follows: KRAS G12D Probe Displacement Assay (TR-FRET, GDP-loaded). It counts as binding. The text has this:
(§1) The synthetic routes of probe 1 and 2, which have been disclosed in PCT/CN2022/070676, are hereby incorporated herein.
A general note: TR-FRET usually uses a lanthanide donor and a delayed reading to cut background.

A further assay concerns the target WT KRAS (Homo sapiens, UniProt P01116). Kind of assay: KRAS WT Probe Displacement Assay (TR-FRET, GDP-loaded). It counts as binding.
Source text: as §1

Setting [1] is: KRAS G12D, read-out: KRAS^G12D Probe Displacement Assay IC50.
Where [2] appears, read: KRAS WT, read-out: KRAS^WT Probe Displacement Assay IC50.

Each structure is given as a SMILES string. Like-named read-outs stand apart in the source and are kept apart here. A value given as a limit tells only on which side of the number the result lay.

Sequence of KRAS G12D (P01116 1-188 isoform P01116-2 G12D): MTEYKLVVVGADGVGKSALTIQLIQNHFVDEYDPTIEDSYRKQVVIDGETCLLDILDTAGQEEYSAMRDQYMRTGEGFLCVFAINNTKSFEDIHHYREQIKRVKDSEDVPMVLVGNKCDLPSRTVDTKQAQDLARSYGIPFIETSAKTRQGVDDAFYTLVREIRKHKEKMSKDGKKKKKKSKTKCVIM
Sequence of WT KRAS (P01116 1-188 isoform P01116-2): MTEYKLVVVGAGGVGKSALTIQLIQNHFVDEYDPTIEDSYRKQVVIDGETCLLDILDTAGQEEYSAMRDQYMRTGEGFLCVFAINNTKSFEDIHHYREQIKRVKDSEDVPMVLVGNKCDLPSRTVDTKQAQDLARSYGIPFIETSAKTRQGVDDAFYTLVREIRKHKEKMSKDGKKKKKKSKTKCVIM

As usually defined, the IC50 is the concentration at which inhibition is half-maximal. Take `Cc1cc(N)cc(-c2nc3c4c(nc(OCC5(C)CN(CC6CC6)CC/C5=C\F)nc4c2F)N2C[C@H]4CC[C@H](N4)[C@H]2CCO3)c1C(F)(F)F` (single isomer, unassigned) [Example 238]: the figures for the IC50 at KRAS G12D (setting [1]) and at WT KRAS (setting [2]) were under 0.3 nM and 3 to 1000 nM, respectively.
The like results for `CO[C@@H]1CCN(CC2(COc3nc4c5c(nc(-c6cc(N)cc(C)c6C(F)(F)F)c(F)c5n3)OCC[C@@H]3[C@@H]5CC[C@H](CN43)N5)CC2)C[C@@H]1F` [Example 184, 3-((6aR,7S,10R)-1-fluoro-13-((1-(((3S,4R)-3-fluoro-4-methoxypiperidin-1-yl)methyl)cyclopropyl)methoxy)-5,6,6a,7,8,9,10,11-octahydro-4-oxa-3,11a,12,14,15-pentaaza-7,10-methanocyclohepta[4,5]cycloocta[1,2,3-de]naphthalen-2-yl)-5-methyl-4-(trifluoromethyl)aniline] were, in that order, under 0.3 nM and 3 to 1000 nM.
The like results for `Cc1cc(N)cc(-c2nc3c4c(nc(OCC5(CN6CCC7(CC6)CC(F)(F)C7)CC5)nc4c2F)N2C[C@H]4CC[C@H](N4)[C@H]2CCO3)c1C(F)(F)F` [Example 173, 3-((6aR,7S,10R)-13-((1-((2,2-difluoro-7-azaspiro[3.5]nonan-7-yl)methyl)cyclopropyl)methoxy)-1-fluoro-5,6,6a,7,8,9,10,11-octahydro-4-oxa-3,11a,12,14,15-pentaaza[7,10]methanocyclohepta[4,5]cycloocta[1,2,3-de]naphthalen-2-yl)-5-methyl-4-(trifluoromethyl)aniline] were, in that order, under 0.3 nM and 3 to 1000 nM.
In the same order, the values of `C=C1CN2C[C@H](F)C[C@@]2(COc2nc3c4c(nc(-c5cc(N)cc(C)c5C(F)(F)F)c(F)c4n2)OCC[C@@H]2[C@@H]4CC[C@H](CN32)N4)C1` [Example 208, 3-((6aR,7S,10R)-1-fluoro-13-(((2R,7aR)-2-fluoro-6-methylenetetrahydro-1H-pyrrolizin-7a(5H)-yl)methoxy)-5,6,6a,7,8,9,10,11-octahydro-4-oxa-3,11a,12,14,15-pentaaza-7,10-methanocyclohepta[4,5]cycloocta[1,2,3-de]naphthalen-2-yl)-5-methyl-4-(trifluoromethyl)aniline] are under 0.3 nM and 0.3 to 3 nM.
As for `Cc1cc(N)cc(-c2nc3c4c(nc(OCC5(C)CC(F)CN(C6CCOCC6)C5)nc4c2F)N2C[C@H]4CC[C@H](N4)[C@H]2CCO3)c1C(F)(F)F` (single isomer, unassigned) [Example 235], the results for the half-inhibitory concentration (IC50) at KRAS G12D (setting [1]) and on WT KRAS (setting [2]) were 0.3 to 3 nM and 3 to 1000 nM, respectively.
The like results for `Nc1cc(Cl)c(C(F)(F)F)c(-c2nc3c4c(nc(OC[C@@]56CCCN5CC(=C(F)F)C6)nc4c2F)N2C[C@H]4CC[C@H](N4)[C@H]2CCO3)c1` [Example 201, 3-chloro-5-((6aR,7S,10R)-13-(((S)-2-(difluoromethylene)tetrahydro-1H-pyrrolizin-7a(5H)-yl)methoxy)-1-fluoro-5,6,6a,7,8,9,10,11-octahydro-4-oxa-3,11a,12,14,15-pentaaza-7,10-methanocyclohepta[4,5]cycloocta[1,2,3-de]naphthalen-2-yl)-4-(trifluoromethyl)aniline] were, in that order, under 0.3 nM and 0.3 to 3 nM.
Turning to `Cc1nc(N)cc(-c2nc3c4c(nc(OCC5(CN6CCC(=C(F)F)CC6)CC5)nc4c2F)N2C[C@H]4CC[C@H](N4)[C@H]2CCO3)c1C(F)(F)F` [Example 147, 4-((6aR,7S,10R)-13-((1-((4-(difluoromethylene)piperidin-1-yl)methyl)cyclopropyl)methoxy)-1-fluoro-5,6,6a,7,8,9,10,11-octahydro-4-oxa-3,11a,12,14,15-pentaaza-7,10-methano-cyclohepta[4,5]cycloocta [1,2,3-de]naphthalen-2-yl)-6-methyl-5-(trifluoromethyl)pyridin-2-amine], the IC50 is under 0.3 nM on KRAS G12D (setting [1]) and 3 to 1000 nM at WT KRAS (setting [2]).
Consider `CN(C)CC1(COc2nc3c4c(nc(-c5cc(N)cc(Cl)c5C(F)(F)F)c(F)c4n2)OCC[C@@H]2[C@@H]4CC[C@H](CN32)N4)CC1(F)F` (mixture of isomers) [Example 18, 3-chloro-5-((6aR,7S,10R)-13-((1-((dimethylamino)methyl)-2,2-difluorocyclopropyl)methoxy)-1-fluoro-5,6,6a,7,8,9,10,11-octahydro-4-oxa-3,11a,12,14,15-pentaaza-7,10-methanocyclohepta[4,5]cycloocta [1,2,3-de]naphthalen-2-yl)-4-(trifluoromethyl)aniline], for which the IC50 was under 0.3 nM on KRAS G12D (setting [1]) and 3 to 1000 nM on WT KRAS (setting [2]).
Consider `Cc1cc(N)cc(-c2nc3c4c(nc(OCC5(CN6C[C@H]7COC[C@H]7C6)CC5)nc4c2F)N2C[C@H]4CC[C@H](N4)[C@H]2CCO3)c1C(F)(F)F` [Example 100, 3-((6aR,7S,10R)-1-fluoro-13-((1-(((3aR,6aS)-tetrahydro-1H-furo[3,4-c]pyrrol-5(3H)-yl)methyl)cyclopropyl)methoxy)-5,6,6a,7,8,9,10,11-octahydro-4-oxa-3,11a,12,14,15-pentaaza-7,10-methanocyclohepta [4,5]cycloocta [1,2,3-de]naphthalen-2-yl)-5-methyl-4-(trifluoromethyl) aniline], for which the IC50 on KRAS G12D (KRAS^G12D Probe Displacement Assay IC50, KRAS G12D) was under 0.3 nM; on WT KRAS (KRAS^WT Probe Displacement Assay IC50, KRAS WT), 0.3 to 3 nM.
For `Cc1cc(N)cc(-c2nc3c4c(nc(O[C@@H](C)[C@@H]5CC6(CN5C)CC6(F)F)nc4c2F)N2C[C@H]4CC[C@H](N4)[C@H]2CCO3)c1C(F)(F)F` (single isomer, unassigned) [Example 224], the IC50 at KRAS G12D (setting [1]) is under 0.3 nM; on WT KRAS (setting [2]), 3 to 1000 nM.
For `Cc1cc(N)cc(-c2nc3c4c(nc(OCC5(CN6CC7CC7(CO)C6)CC5)nc4c2F)N2C[C@H]4CC[C@H](N4)[C@H]2CCO3)c1C(F)(F)F` (mixture of isomers) [Example 99, (3-((1-((((6aR,7S,10R)-2-(5-amino-3-methyl-2-(trifluoromethyl)phenyl)-1-fluoro-5,6,6a,7,8,9,10,11-octahydro-4-oxa-3,11a,12,14,15-pentaaza-7,10-methanocyclohepta [4,5]cycloocta [1,2,3-de]naphthalen-13-yl)oxy)methyl)cyclopropyl)methyl)-3-azabicyclo[3.1.0]hexan-1-yl)methanol], the IC50 at KRAS G12D (setting [1]) was under 0.3 nM; on WT KRAS (setting [2]), 0.3 to 3 nM.
For `Cc1cc(N)cc(-c2nc3c4c(nc(OCC5(CN6CC(F)(F)C6)CC5)nc4c2F)N2C[C@H]4CC[C@H](N4)[C@H]2CCO3)c1C(F)(F)F` [Example 82, 3-((6aR,7S,10R)-13-((1-((3,3-difluoroazetidin-1-yl)methyl)cyclopropyl)methoxy)-1-fluoro-5,6,6a,7,8,9,10,11-octahydro-4-oxa-3,11a,12,14,15-pentaaza-7,10-methanocyclohepta [4,5]cycloocta [1,2,3-de]naphthalen-2-yl)-5-methyl-4-(trifluoromethyl)aniline], the IC50 at KRAS G12D (setting [1]) lay within 0.3 to 3 nM; on WT KRAS (setting [2]) it was 3 to 1000 nM.
In the same order, the values of `Cc1cc(N)cc(-c2nc3c4c(nc(OCC5(CN6CC7CC7C6)CC5(F)F)nc4c2F)N2C[C@H]4CC[C@H](N4)[C@H]2CCO3)c1C(F)(F)F` (single isomer, unassigned) [Example 28] are under 0.3 nM and 3 to 1000 nM.
